Source: patent EP3696177A1, “HETEROCYCLIC COMPOUNDS FOR THE CONTROL OF INVERTEBRATE PESTS” (BASF SE, priority 2019, dated 2020)
Where two headings read alike, the source gives them in different places.

Key:
Format in all cases: in vivo
Anthonomus grandis = assay: Boll weevil (Anthonomus grandis) insect diet microtiter plate test; conditions: 120 h, read-out: mortality in comparison with untreated controls (egg and larval mortality)
Method: For evaluating control of boll weevil (Anthonomus grandis) the test unit consisted of 96-well-microtiter plates containing an insect diet and 5-10 A. grandis eggs.
The compounds were formulated using a solution containing 75% v/v water and 25% v/v DMSO. Different concentrations of formulated compounds were sprayed onto the insect diet at 5 µl, using a custom built micro atomizer, at two replications.
After application, microtiter plates were incubated at about 25 + 1°C and about 75 + 5 % relative humidity for 5 days. Egg and larval mortality was then visually assessed.

Aphis craccivora = assay: Cowpea aphid (Aphis craccivora) spray test on potted cowpea plants; conditions: aphids of various stages, after 72 hours, read-out: mortality in comparison with untreated controls
Method: The active compound is dissolved at the desired concentration in a mixture of 1:1 (vol: vol) distilled water: acetone. Surfactant (Kinetic) is added at a rate of 0.01% (vol/vol). The test solution is prepared at the day of use.
Potted cowpea plants are colonized with approximately 30 - 50 aphids of various stages by man-ually transferring aphid-infested leaf clippings 24 hours before application. Plants are sprayed with the test solutions using a DeVilbiss® hand atomizer at 20- 30 psi (≈ 1.38 to 2.07 bar) after the pest population has been checked. Treated plants are maintained on light carts at about 25- 26°C. Estimate percent mortality is assessed after 72 hours.

Heliothis virescens = assay: Tobacco budworm (Heliothis virescens) insect diet microtiter plate test; conditions: 120 h, read-out: mortality in comparison with untreated controls (egg and larval mortality)
Method: For evaluating control of tobacco budworm (Heliothis virescens) the test unit consisted of 96-well-microtiter plates containing an insect diet and 15-25 H. virescens eggs.
The compounds were formulated using a solution containing 75% v/v water and 25% v/v DMSO. Different concentrations of formulated compounds were sprayed onto the insect diet at 10 µl, us-ing a custom built micro atomizer, at two replications.
After application, microtiter plates were incubated at about 28 + 1°C and about 80 + 5 % relative humidity for 5 days. Egg and larval mortality was then visually assessed.

Nephotettix virescens = assay: Rice green leafhopper (Nephotettix virescens) spray test on rice seedlings; conditions: adults, after 72 hours, read-out: mortality in comparison with untreated controls
Method: Four to five-week old rice seedlings with cut upper leaf portion are cleaned and washed 24 hours before spraying. The active compounds are formulated in 1:1 acetone:water (vol:vol), and 0.01% vol/vol surfactant (Kinetic) is added. Potted rice seedlings are sprayed with 5-6 ml test solution, air dried, covered with Mylar cages and inoculated with 10 adults. Treated rice plants are kept at about 28-29°C and relative humidity of about 50-60%. Percent mortality is recorded after 72 hours.

Megoura viciae = assay: Vetch aphid (Megoura viciae) broad bean leaf disk test; conditions: foliar, 120 h, read-out: mortality in comparison with untreated controls
Method: For evaluating control of vetch aphid (Megoura viciae) through contact or systemic means the test unit consisted of 24-well-microtiter plates containing broad bean leaf disks.
The compounds were formulated using a solution containing 75% v/v water and 25% v/v DMSO. Different concentrations of formulated compounds were sprayed onto the leaf disks at 2.5 µl, us-ing a custom built micro atomizer, at two replications.
After application, the leaf disks were air-dried and 5 - 8 adult aphids placed on the leaf disks in-side the microtiter plate wells. The aphids were then allowed to suck on the treated leaf disks and incubated at about 23 + 1°C and about 50 + 5 % relative humidity for 5 days. Aphid mortality and fecundity was then visually assessed.

Nezara viridula = assay: Green soldier stink bug (Nezara viridula) soybean pod spray test; conditions: 120 h, late 3rd instar N. viridula, after 5 days, read-out: mortality in comparison with untreated controls
Method: The active compound is dissolved at the desired concentration in a mixture of 1:1 (vol:vol) distilled water: aceteone. Surfactant (Kinetic) is added at a rate of 0.01% (vol/vol).The test solution is prepared at the day of use.
Soybean pods are placed in 90 x 50 mm glass Petri dishes lined with moistened filter paper and inoculated with ten late 3rd instar N. viridula. Using a hand atomizer, an approximately 2 ml solution is sprayed into each Petri dish. Treated set-up is kept at about 25-26°C and relative humidity of about 65-70%. Percent mortality is recorded after 5 days.

Myzus persicae = assay: Green peach aphid (Myzus persicae) artificial diet/membrane systemic test; conditions: 72 h, read-out: mortality in comparison with untreated controls
Source text: For evaluating control of green peach aphid (Myzus persicae) through systemic means the test unit consisted of 96-well-microtiter plates containing liquid artificial diet under an artificial membrane.
The compounds were formulated using a solution containing 75% v/v water and 25% v/v DMSO. Different concentrations of formulated compounds were pipetted into the aphid diet, using a cus-tom built pipetter, at two replications.
After application, 5 - 8 adult aphids were placed on the artificial membrane inside the microtiter plate wells. The aphids were then allowed to suck on the treated aphid diet and incubated at about 23 + 1°C and about 50 + 5 % relative humidity for 3 days. Aphid mortality and fecundity was then visually assessed.

Caenorhabditis elegans = Caenorhabditis elegans liquid diet microtiter plate test; conditions: 96 h, read-out: mortality in comparison with untreated controls (nematode motility (mortality))
Method: For evaluating control of Caenorhabditis elegans through contact or systemic means the test unit consisted of 96-well-microtiter plates containing a liquid diet.
The compounds or mixtures were formulated using a solution containing 75% water and 25% DMSO. Different concentrations of formulated compounds were sprayed into the microtiter plate wells at 5µl per well, using a custom built micro atomizer, at two replications. Mixed instar 60-100 C. elegans were transferred into the micro-titer plate wells. After application, the nematodes were incubated at 18 + 1°C, 70 + 5 % RH for 4 days. Nematode motility (mortality) was then visually assessed.

dichromothrips corbetti = assay: Orchid thrips floral-immersion test; conditions: 72 h, read-out: mortality in comparison with untreated controls
Method: Dichromothrips corbetti adults used for bioassay are obtained from a colony maintained continu-ously under laboratory conditions. For testing purposes, the test compound is diluted in a 1:1 mix-ture of acetone:water (vol:vol), plus Kinetic at a rate of 0.01% v/v.
Thrips potency of each compound is evaluated by using a floral-immersion technique. Each orchid petal is dipped into treatment solution and allowed to dry in Petri dishes. Treated petals are placed into individual re-sealable plastic along with about 20 adult thrips. All test arenas are held under dark condition and a temperature of about 28°C for duration of the assay. The percent mor-tality is recorded 72 hours after treatment.

Aedes aegypti = assay: whole plant or invertebrate; conditions: 48 h, A. aegypti larvae, incubated 2 days, read-out: mortality in comparison with untreated controls (larval mortality)
Method: For evaluating control of yellow fever mosquito (Aedes aegypti) the test unit consisted of 96-well-microtiter plates containing 200µl of tap water per well and 5-15 freshly hatched A. aegypti larvae.
The active compounds were formulated using a solution containing 75% (v/v) water and 25% (v/v) DMSO. Different concentrations of formulated compounds or mixtures were sprayed onto the insect diet at 2.5µl, using a custom built micro atomizer, at two replications.
After application, microtiter plates were incubated at 28 + 1°C, 80 + 5 % RH for 2 days. Larval mortality was then visually assessed.

Plutella xylostella = assay: Diamond back moth (Plutella xylostella) cabbage leaf disc dip test; conditions: foliar, 72 h, read-out: mortality in comparison with untreated controls
Method: The active compound is dissolved at the desired concentration in a mixture of 1:1 (vol:vol) distilled water: acetone. Surfactant (Kinetic) is added at a rate of 0.01% (vol/vol). The test solution is pre-pared at the day of use.
Cabbage leaf discs (60mm in diameter) are dipped in test solution and air-dried. Treated leaves are placed in petri dishes lined with moistened filter paper and inoculated with ten 3rd instar larvae. Mortality is recorded 72 hours after treatment. Feeding damage is also recorded using a scale of 0-100%.

Tetranychus kanzawai = assay: Red spider mite (Tetranychus kanzawai) spray test on cowpea beans; conditions: 72 h, read-out: mortality in comparison with untreated controls
Method: The active compound is dissolved at the desired concentration in a mixture of 1:1 (vol:vol) distilled water: acetone. Add surfactant (Kinetic) is added at a rate of 0.01% (vol/vol). The test solution is prepared at the day of use.
Potted cowpea beans of 4-5 days of age are cleaned with tap water and sprayed with 1-2 ml of the test solution using air driven DeVilbiss® hand atomizer at 20- 30 psi (≈ 1,38 to 2,07 bar). The treated plants are allowed to air dry and afterwards inoculated with 30 or more mites by clipping a cassava leaf section from rearing population. Treated plants are placed inside a holding room at about 25-26°C and about 65-70% relative humidity. Estimate percent mortality is assessed 72 hours after treatment.

CCN1C(=O)SC(NC(=O)c2ccc(C3=NOC(c4cc(Cl)c(F)c(Cl)c4)(C(F)(F)F)C3)cc2Cl)C1=O (stereo not drawn) [Compound I-1-7]
> 75%: mortality at 2500 ppm (Anthonomus grandis) | mortality at 300 ppm (Aphis craccivora) | mortality at 2500 ppm (Heliothis virescens) | mortality at 300 ppm (Nephotettix virescens) | mortality at 2500 ppm (Megoura viciae) | mortality at 300 ppm (Nezara viridula) | mortality at 2500 ppm (Myzus persicae) | mortality at 2500 ppm (Caenorhabditis elegans) | mortality at 300 ppm (dichromothrips corbetti) | mortality at 2500 ppm (Aedes aegypti) | mortality at 300 ppm (Plutella xylostella) | mortality at 300 ppm (Tetranychus kanzawai; topical)

CN1C(=O)SC(NC(=O)c2ccc(C3=NOC(c4cc(Cl)c(F)c(Cl)c4)(C(F)(F)F)C3)c3c2CCC3)C1=O (stereo not drawn) [Compound I-1-9]
> 75%: mortality at 2500 ppm (Anthonomus grandis) | mortality at 300 ppm (Aphis craccivora) | mortality at 2500 ppm (Heliothis virescens) | mortality at 300 ppm (Nephotettix virescens) | mortality at 2500 ppm (Megoura viciae) | mortality at 300 ppm (Nezara viridula) | mortality at 2500 ppm (Myzus persicae) | mortality at 2500 ppm (Caenorhabditis elegans) | mortality at 300 ppm (dichromothrips corbetti) | mortality at 2500 ppm (Aedes aegypti) | mortality at 300 ppm (Plutella xylostella) | mortality at 300 ppm (Tetranychus kanzawai; topical)

Cc1cc(C2=NOC(c3cc(Cl)c(F)c(Cl)c3)(C(F)(F)F)C2)ccc1C(=O)NC1SC(=O)N(C(C)C)C1=O (stereo not drawn) [Compound I-1-11]
> 75%: mortality at 2500 ppm (Anthonomus grandis) | mortality at 300 ppm (Aphis craccivora) | mortality at 2500 ppm (Heliothis virescens) | mortality at 300 ppm (Nephotettix virescens) | mortality at 2500 ppm (Megoura viciae) | mortality at 300 ppm (Nezara viridula) | mortality at 2500 ppm (Myzus persicae) | mortality at 2500 ppm (Caenorhabditis elegans) | mortality at 300 ppm (dichromothrips corbetti) | mortality at 2500 ppm (Aedes aegypti) | mortality at 300 ppm (Plutella xylostella) | mortality at 300 ppm (Tetranychus kanzawai; topical)

CCN1C(=O)SC(NC(=O)c2ccc(C3=NCC(c4cc(Cl)c(F)c(Cl)c4)(C(F)(F)F)C3)c3c2CCC3)C1=O (stereo not drawn) [Compound I-2-1]
> 75%: mortality at 2500 ppm (Anthonomus grandis) | mortality at 300 ppm (Aphis craccivora) | mortality at 2500 ppm (Heliothis virescens) | mortality at 300 ppm (Nephotettix virescens) | mortality at 2500 ppm (Megoura viciae) | mortality at 300 ppm (Nezara viridula) | mortality at 2500 ppm (Myzus persicae) | mortality at 2500 ppm (Caenorhabditis elegans) | mortality at 300 ppm (dichromothrips corbetti) | mortality at 2500 ppm (Aedes aegypti) | mortality at 300 ppm (Plutella xylostella) | mortality at 300 ppm (Tetranychus kanzawai; topical)

CN1COC(CNC(=O)c2ccc(C3=NOC(c4cc(Cl)c(F)c(Cl)c4)(C(F)(F)F)C3)c3c2CCC3)C1=O (stereo not drawn) [Compound I-3-1]
> 75%: mortality at 2500 ppm (Anthonomus grandis) | mortality at 300 ppm (Aphis craccivora) | mortality at 2500 ppm (Heliothis virescens) | mortality at 300 ppm (Nephotettix virescens) | mortality at 2500 ppm (Megoura viciae) | mortality at 300 ppm (Nezara viridula) | mortality at 2500 ppm (Myzus persicae) | mortality at 2500 ppm (Caenorhabditis elegans) | mortality at 300 ppm (dichromothrips corbetti) | mortality at 2500 ppm (Aedes aegypti) | mortality at 300 ppm (Plutella xylostella) | mortality at 300 ppm (Tetranychus kanzawai; topical)

CN1COC(CNC(=O)c2ccc(C3=NOC(c4cc(Cl)c(F)c(Cl)c4)(C(F)(F)F)C3)cc2Cl)C1=O (stereo not drawn) [Compound I-3-5, 2-chloro-4-[5-(3,5-dichloro-4-fluoro-phenyl)-5-(trifluoromethyl)-4H-isoxazol-3-yl]-N-[(3-methyl-4-oxo-oxazolidin-5-yl)methyl]benzamide]
> 75%: mortality at 2500 ppm (Anthonomus grandis) | mortality at 300 ppm (Aphis craccivora) | mortality at 2500 ppm (Heliothis virescens) | mortality at 300 ppm (Nephotettix virescens) | mortality at 2500 ppm (Megoura viciae) | mortality at 300 ppm (Nezara viridula) | mortality at 2500 ppm (Myzus persicae) | mortality at 2500 ppm (Caenorhabditis elegans) | mortality at 300 ppm (dichromothrips corbetti) | mortality at 2500 ppm (Aedes aegypti) | mortality at 300 ppm (Plutella xylostella) | mortality at 300 ppm (Tetranychus kanzawai)
